Columns and labels:
[1] = tested on: LNCaP human androgen-sensitive prostate cancer cell line; assay: WST-1 cell proliferation assay, LNCaP; type: cell-based
[2] = tested on: PC-3 human androgen-insensitive prostate cancer cell line; assay: WST-1 cell proliferation assay, PC-3; type: cell-based
[3] = tested on: PC-3 cells; conditions: cited from earlier work
[4] = tested on: PWR-1E non-neoplastic human prostate epithelial cells; assay: WST-1 cell proliferation assay, PWR-1E; type: cell-based
[5] = tested on: DU145 human androgen-insensitive prostate cancer cell line; assay: WST-1 cell proliferation assay, DU145; type: cell-based
[6] = fold potency relative to curcumin

- IC50 ([1]; Homo sapiens, LNCaP, 72 h, read-out: IC50 (μM) LNCaP): 13.6 ± 2.69 µM
- IC50(curcumin)/IC50(trienone) LNCaP [1, 6]: 1
- IC50 ([2]; Homo sapiens, 72 h, read-out: IC50 (μM) PC-3): 25.4 ± 2.15 µM
- IC50(curcumin)/IC50(trienone) PC-3 [2, 6]: 1
- IC50 ([5]; Homo sapiens, DU-145, 72 h, read-out: IC50 (μM) DU145): 26.2 ± 0.65 µM
- IC50(curcumin)/IC50(trienone) DU145 [5, 6]: 1
SMILES: COc1cc(/C=C/C(=O)CC(=O)/C=C/c2ccc(O)c(OC)c2)ccc1O [Curcumin]
- effect on PC-3 cell cycle progression [3]: arresting the G1/S phase
- IC50 ([4]; Homo sapiens, PWR-1E, 72 h, read-out: IC50 (μM) PWR-1E): 8.14 to 9.54 µM
- IC50(curcumin)/IC50(trienone) PWR-1E [4, 6]: 1
